Results on three molecules are retold here after patent US20100056445A1, “ADIPONECTIN FOR THE TREATMENT AND DIAGNOSIS OF ALBUMINURIA” (THOMAS JEFFERSON UNIVERSITY, priority 2006, published 2010).

The test system of one test is podocyte monolayer. Kind of test: Albumin permeability across differentiated podocyte monolayer (Transwell). The settings on record: for Albumin permeability across podocyte monolayer: 1 mM; for Effect on the protective effect of adiponectin on podocyte permeability: ARA-A 1 mM pre-treatment prior to addition of adiponectin; for Permeability of albumin across a podocyte monolayer: adiponectin (globular or full length) 3 μg/ml, serum free, vs. control. It is filed as cell-based, mouse. As to the method: Podocyte cell culture: Conditionally immortalized mouse podocytes were kindly provided by Dr. Peter Mundel (Albert Einstein College of Medicine, Bronx, N.Y.) and were cultured as previously described (27). The cells harbor a temperature-sensitive variant of the SV40 large T antigen (tsA58) that is inducible by γ-interferon and stable at 33° C. but rapidly degraded at 37° C. (27). At 33° C., the large T antigen allows for cellular proliferation. The proliferating cells are maintained in collagen I—coated flasks in RPMI-1640 media supplemented with 10% FBS and 10 units/ml mouse recombinant γ-interferon. When the cells have reached confluence, they are passaged and allowed to differentiate at 37° C. for 8-10 days without γ-interferon in Dulbecco's modified Eagle's medium containing 5.5 mmol/l glucose and 5% FCS. For the permeability assay a modification of a previously published protocol (28) was adopted. Differentiated podocytes (0.2×10^6 podocytes/well) plated on collagen coated 24 well Transwell plates (Corning) were serum-starved ovenight when confluent. Cells were then modulated with globular adiponectin (PepROTech Inc.) with or without 1 mM adenosine 9-p-D-arabinofuranoside (ARA-A) (Sigma, St. Louis, Mo.), for 24 h. Cells were then washed twice with PBS supplemented with 1 mM MgCl2 and 1 mM CaCl2. The upper compartment was refilled with 0.25 ml RPMI 1640 alone and the lower compartment with 0.5 ml RPMI 1640 supplemented with 40 mg/ml BSA and incubated for 2 hour at 37° C. Total protein concentration in the upper compartment was determined using a Bio-Rad protein assay (Bio-Rad Laboratories, Hercules, Calif.).

Test [1] relates to Adiponectin KO (Ad−/−) mice. Kind of test: Urine albumin/creatinine ratio in treated adiponectin KO mice. It is filed as in vivo, mouse. Particulars: Ad−/− mice at 4 months of age. The method, then:
Adiponectin administration and animal studies: The mice were treated with 25 μg of recombinant human globular domain adiponectin (gAd; PepROTech, Rocky Hill, N.J.) subcutaneously twice daily for 10 consecutive days. The control animals were given PBS alone. 24-hour urines from each mouse were collected twice: one week before the injections and on the last day of the injections. The urine albumin and creatinine were measured with a mouse Albuwell ELISA kit and a Creatinine Companion kit (Exocell, Philadelphia, Pa.) (25,26). The mice were sacrificed five hours after the final gAd injection under anesthesia. Portions of kidney cortex were fixed in buffered formalin and embedded in paraffin. A portion of kidney cortical tissue was cut into 1 mm^3 pieces and fixed in 2.5% glutaraldehyde
(§1) Interventional animal studies: The mice were treated with 25 μg of recombinant human globular domain adiponectin gAd (PepROTech, Rocky Hill, N.J.), administered 25 μg/mouse twice a day for 10 consecutive days or full-length adiponectin (fAd) was administered using an AAV vector (AAV2/8 CMV fAd virus 4×1011 GC/mouse for 10 days). A separate group of Ad−/− mice were treated with 5-aminoimidazole-4-carboxamide-1-beta-D-ribonucleoside (AICAR) with a single i.p. dose of 300 mg/kg. The control animals were given PBS alone or control AAV. 24-hour urines from each mouse were collected before treatment and on the last day of the treatment period. The urine albumin and creatinine were measured with a mouse Albuwell ELISA kit and a Creatinine Companion kit (Exocell, Philadelphia, Pa.) (26, 25). As an index of oxidant stress timed urine collections were also analyzed for hydrogen peroxide by Amplex red assay (Invitrogen/Molecular Probes, Carlsbad, Calif.) following the manufacturer's protocol. Portions of liver, muscle and kidney was snap-frozen in liquid nitrogen for RNA isolation. An additional aliquot of normal kidney was frozen in OCT for immunofluorescent staining. […]

For another test, the system named is Ad−/− mice. Kind of test: Urinary hydrogen peroxide (Amplex red) in Ad−/− mice. The class given is in vivo, mouse. Particulars: 4 month-old Ad−/− mice. The method, then: as §1
The subject of another test is Nox4. Kind of test: Nox4 protein in cultured podocytes (immunoblot, confocal). It is filed as cell-based, mouse. The settings on record: AICAR; podocytes grown in high glucose (HG). In general terms: Immunoblotting shows a protein as a band on a membrane.

Entries after “also recorded” stand apart in the source; their conditions may differ.

Take `NC(=O)c1ncn([C@@H]2O[C@H](CO)[C@@H](O)[C@H]2O)c1N` [AICAR, 5-aminoimidazole-4-carboxamide-1-beta-D-ribonucleoside, reference compound]: in the test on podocyte monolayer (AMPK activator AICAR), the “Albumin permeability across podocyte monolayer” value is “decreased”. Further, the “Urine albumin/creatinine ratio (albuminuria)” value in test [1] (AICAR single i.p. dose of 300 mg/kg, 300 mg/kg) is recorded as “restored albuminuria; also recorded: significantly decreased urine albumin/creatinine to the control values seen in WT mice”. Besides, the “Urinary levels of hydrogen peroxide” value in the test with Ad−/− mice (AICAR single i.p. dose of 300 mg/kg) is “reduced”. Also, the “Podocyte Nox4 protein” value with Nox4 was “reduced Nox4 protein levels to a similar degree as adiponectin”.
On to `Nc1ncnc2c1ncn2[C@@H]1O[C@H](CO)[C@@H](O)[C@@H]1O` [ARA-A, adenosine 9-p-D-arabinofuranoside], for which the “Albumin permeability across podocyte monolayer” value with podocyte monolayer (AMPK inhibitor ARA-A alone) is on record as “increased permeability to albumin”; in the test with podocyte monolayer (AMPK inhibitor ARA-A alone, listed as ARA) it was “increased”. Further, the “Effect on the protective effect of adiponectin on podocyte permeability” value in the test with podocyte monolayer was “prevented the protective effects of adiponectin on podocyte permeability; also recorded: increased permeability to albumin; also recorded: blocked protective effect of adiponectin”; in the test on podocyte monolayer (listed as ARA), “blocked”.

B1: fAd: full-length adiponectin; in mice administered using an AAV vector (AAV2/8 CMV fAd virus) (protein, listed as Homo sapiens)
chain: MLLLGAVLLLLALPGHDQETTTQGPGVLLPLPKGACTGWMAGIPGHPGHNGAPGRDGRDGTPGEKGEKGDPGLIGPKGDIGETGVPGAEGPRGFPGIQGRKGEPGEGAYVYRSAFSVGLETYVTIPNMPIRFTKIFYNQQNHYDGSTGKFHCNIPGLYYFAYHITVYMKDVKVSLFKKDKAMLFTYDQYQENNVDQASGSVLLHLEVGDQVWLQVYGEGERNGLYADNDNDSTFTGFLLYHDTN
modifications: delivered via AAV2/8 CMV vector
As to B1, the figures for the “Permeability of albumin across a podocyte monolayer” value in the test with podocyte monolayer and with podocyte monolayer (listed as full length adiponectin) were “reduced” and “significantly reduced”, respectively. Moreover, the “Urine albumin/creatinine ratio (albuminuria)” value in test [1] (fAd by AAV vector, 10 days) is on record as “significantly decreased urine albumin/creatinine to the control values seen in WT mice”. For the same molecule, the “Urinary levels of hydrogen peroxide” value in the test on Ad−/− mice (fAd by AAV vector, 10 days) is reported as “reduced”.
